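These data come from cells grown in 96-well plates and exposed to compound for 48 hours at five concentrations. Definition used: TGI = concentration required for complete inhibition of growth.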
Key:
Assay in all cases: growth of human tumour cells (NCI), 48 h
[1] = system: 786-0 renal
[2] = system: CAKI-1 renal
[3] = system: COLO 205 colon
[4] = system: HS 578T breast
[5] = system: HT29 colon
[6] = system: LOX IMVI melanoma
[7] = system: MALME-3M melanoma
[8] = system: MDA-MB-231 breast
[9] = system: MOLT-4 leukemia
[10] = system: NCI-H226 lung
[11] = system: NCI-H23 lung
[12] = system: OVCAR-4 ovarian
[13] = system: OVCAR-5 ovarian
[14] = system: SF-539 CNS
[15] = system: T-47D breast
[16] = system: TK-10 renal
[17] = system: U251 CNS
[18] = system: HCC-2998 colon
[19] = system: A498 renal

COC(=O)C1Cc2c(OC)ccc(OC)c2C(O)C1C(=O)OC (stereo unspecified)
TGI [1]: > 100 µM
TGI [2]: > 100 µM
TGI [3]: > 100 µM
TGI [4]: > 100 µM
TGI [5]: > 100 µM
TGI [6]: > 100 µM
TGI [7]: > 100 µM
TGI [8]: > 100 µM
TGI [9]: > 100 µM
TGI [10]: > 100 µM
TGI [11]: > 100 µM
TGI [12]: > 100 µM
TGI [13]: > 100 µM
TGI [14]: > 100 µM
TGI [15]: > 100 µM
TGI [16]: > 100 µM
TGI [17]: > 100 µM

CC1CN=C(Nc2cccc(F)c2)S1 (stereo unspecified)
TGI [1]: > 100 µM
TGI [2]: > 100 µM
TGI [3]: > 100 µM
TGI [18]: > 100 µM
TGI [4]: > 100 µM
TGI [5]: > 100 µM
TGI [6]: > 100 µM
TGI [7]: > 100 µM
TGI [8]: 25.2 µM
TGI [10]: > 100 µM
TGI [11]: > 100 µM
TGI [12]: > 100 µM
TGI [13]: > 100 µM
TGI [14]: > 100 µM
TGI [15]: > 100 µM
TGI [16]: > 100 µM
TGI [17]: > 100 µM

O=C1CCCC/C1=C\c1ccc([N+](=O)[O-])cc1
TGI [1]: 28.1 µM
TGI [2]: 35.7 µM
TGI [3]: 32.3 µM
TGI [18]: 27.2 µM
TGI [4]: 70.8 µM
TGI [5]: > 100 µM
TGI [6]: 3.74 µM
TGI [8]: 52.6 µM
TGI [9]: 30.4 µM
TGI [11]: 54.8 µM
TGI [12]: 53.1 µM
TGI [13]: > 100 µM
TGI [14]: 43.3 µM
TGI [15]: 65.3 µM
TGI [16]: 26.3 µM
TGI [17]: 29.6 µM

O=C1NC(Nc2ccccc2)=N/C1=C\c1c(Cl)cccc1Cl
TGI [1]: 29.6 µM
TGI [19]: > 100 µM
TGI [2]: > 100 µM
TGI [3]: > 100 µM
TGI [18]: 58.5 µM
TGI [4]: 95 µM
TGI [5]: > 100 µM
TGI [6]: > 100 µM
TGI [7]: 56.5 µM
TGI [9]: 64.1 µM
TGI [10]: 41.6 µM
TGI [11]: > 100 µM
TGI [12]: 25.5 µM
TGI [13]: > 100 µM
TGI [14]: 53.2 µM
TGI [15]: > 100 µM
TGI [16]: 47.2 µM
TGI [17]: 37.6 µM

Nc1ccc(-c2nc3ccc(F)cc3s2)cc1Cl
TGI [1]: > 100 µM
TGI [19]: > 100 µM
TGI [2]: > 100 µM
TGI [3]: > 100 µM
TGI [18]: > 100 µM
TGI [4]: > 100 µM
TGI [5]: > 100 µM
TGI [6]: > 100 µM
TGI [7]: > 100 µM
TGI [8]: 99.5 µM
TGI [9]: > 100 µM
TGI [10]: > 100 µM
TGI [11]: > 100 µM
TGI [12]: > 100 µM
TGI [13]: > 100 µM
TGI [14]: > 100 µM
TGI [16]: > 100 µM
TGI [17]: > 100 µM

COc1ccc(/C=C2\C[C@H]3[C@@H]4CCC5=C/C(=N/O)CC[C@]5(C)[C@H]4CC[C@]3(C)\C2=N\O)cc1
TGI [1]: > 100 µM
TGI [2]: > 100 µM
TGI [3]: 43.9 µM
TGI [18]: 49.7 µM
TGI [4]: > 100 µM
TGI [5]: 45.3 µM
TGI [6]: > 100 µM
TGI [7]: > 100 µM
TGI [8]: > 100 µM
TGI [9]: > 100 µM
TGI [10]: 95.4 µM
TGI [11]: > 100 µM
TGI [12]: > 100 µM
TGI [13]: > 100 µM
TGI [15]: > 100 µM
TGI [16]: > 100 µM
TGI [17]: > 100 µM

O=C(Nc1cccc(F)c1)c1cc2ccc(O)cc2oc1=Nc1cccc(F)c1
TGI [1]: > 100 µM
TGI [19]: > 100 µM
TGI [2]: > 100 µM
TGI [3]: > 100 µM
TGI [18]: > 100 µM
TGI [4]: 50.8 µM
TGI [5]: > 100 µM
TGI [6]: 9.35 µM
TGI [7]: 84 µM
TGI [9]: 32.4 µM
TGI [11]: 6.12 µM
TGI [12]: > 100 µM
TGI [13]: > 100 µM
TGI [14]: > 100 µM
TGI [15]: 42.2 µM
TGI [17]: > 100 µM

c1ccc2cc3c(NC4=NCCO4)cccc3cc2c1
TGI [1]: > 100 µM
TGI [19]: > 100 µM
TGI [2]: > 100 µM
TGI [3]: > 100 µM
TGI [4]: > 100 µM
TGI [5]: 80.4 µM
TGI [6]: 95 µM
TGI [7]: > 100 µM
TGI [8]: > 100 µM
TGI [9]: > 100 µM
TGI [10]: > 100 µM
TGI [11]: > 100 µM
TGI [12]: > 100 µM
TGI [13]: > 100 µM
TGI [14]: > 100 µM
TGI [16]: > 100 µM
TGI [17]: > 100 µM

CC(C)(C)OC(=O)N1NC(c2ccccc2)CC1c1ccccc1 (stereo unspecified)
TGI [1]: > 100 µM
TGI [19]: 74.4 µM
TGI [2]: > 100 µM
TGI [3]: 41.2 µM
TGI [18]: > 100 µM
TGI [4]: > 100 µM
TGI [5]: > 100 µM
TGI [9]: > 100 µM
TGI [10]: 88.2 µM
TGI [11]: 40.4 µM
TGI [13]: > 100 µM
TGI [14]: > 100 µM
TGI [15]: 56.2 µM
TGI [16]: > 100 µM

Cc1cccc2oc3c(c(=O)c12)CC(O)C(C)(C)O3 (stereo unspecified)
TGI [1]: > 100 µM
TGI [19]: > 100 µM
TGI [2]: > 100 µM
TGI [3]: > 100 µM
TGI [18]: > 100 µM
TGI [4]: > 100 µM
TGI [5]: > 100 µM
TGI [6]: > 100 µM
TGI [7]: > 100 µM
TGI [9]: 83.2 µM
TGI [10]: > 100 µM
TGI [11]: > 100 µM
TGI [12]: > 100 µM
TGI [13]: > 100 µM
TGI [14]: > 100 µM
TGI [15]: > 100 µM
TGI [16]: > 100 µM
TGI [17]: > 100 µM

CC(=O)C(C)C(=O)N1C(=O)N(C)C2(C)N(C)C(=O)NC12C (stereo unspecified)
TGI [1]: > 100 µM
TGI [2]: > 100 µM
TGI [3]: > 100 µM
TGI [18]: > 100 µM
TGI [4]: > 100 µM
TGI [5]: > 100 µM
TGI [7]: > 100 µM
TGI [8]: > 100 µM
TGI [11]: > 100 µM
TGI [12]: > 100 µM
TGI [13]: > 100 µM
TGI [14]: > 100 µM
TGI [16]: > 100 µM
TGI [17]: > 100 µM

Clc1ccc(-c2cc(-c3cc4cc(Br)ccc4nc3Cl)on2)cc1
TGI [1]: > 50 µM
TGI [19]: 41.9 µM
TGI [2]: > 50 µM
TGI [3]: 15.4 µM
TGI [18]: 23.9 µM
TGI [4]: > 50 µM
TGI [5]: > 50 µM
TGI [6]: 21.4 µM
TGI [7]: > 50 µM
TGI [9]: 47.3 µM
TGI [10]: 27.4 µM
TGI [11]: 46.5 µM
TGI [12]: > 50 µM
TGI [13]: > 50 µM
TGI [14]: 17.5 µM
TGI [15]: > 50 µM

C1CCCCC2(CCCCCCCCC3(CCC1)SCCS3)SCCS2
TGI [1]: > 100 µM
TGI [19]: > 100 µM
TGI [2]: > 100 µM
TGI [3]: > 100 µM
TGI [18]: > 100 µM
TGI [4]: > 100 µM
TGI [5]: > 100 µM
TGI [6]: > 100 µM
TGI [7]: > 100 µM
TGI [10]: > 100 µM
TGI [11]: > 100 µM
TGI [12]: > 100 µM
TGI [13]: > 100 µM
TGI [14]: > 100 µM
TGI [15]: > 100 µM
TGI [16]: > 100 µM
TGI [17]: > 100 µM

COC1(C2c3ccccc3CCN2C(=O)OC(C)(C)C)C(=O)C(c2ccccc2)=C1N(C)C (stereo unspecified)
TGI [1]: 93.3 µM
TGI [19]: 62.6 µM
TGI [2]: > 100 µM
TGI [3]: 35.4 µM
TGI [4]: 96.9 µM
TGI [5]: 43.9 µM
TGI [7]: 93.8 µM
TGI [9]: > 100 µM
TGI [10]: 59.6 µM
TGI [11]: 71.6 µM
TGI [12]: > 100 µM
TGI [13]: > 100 µM
TGI [14]: 47.6 µM
TGI [15]: > 100 µM
TGI [16]: > 100 µM
TGI [17]: > 100 µM

Reference: PubChem BioAssay (NCI)
